One block for each molecule: values may come before it.
Assays:
Type in all cases: biochemical
[1] = system: antibody 7G12-A10-G1-A12-mesohemin (Fe(III)mesoporphyrin) complex; experiment: Peroxidation of chromogenic peroxidase substrates with H2O2 catalyzed by antibody-mesohemin complex
Description: In further experiments, this antibody was used in the presence of H2 O2 to catalyze the oxidation of the following group of typical chromogenic peroxidase substrates: [drawing 7] Reaction mixtures contained 1 mM reducing substrate, 5 mM hydrogen peroxide, 0.5 mM Fe(III)mesoporphyrin chloride (mesohemin), 0.5% w/v Triton X-100, 4% v/v dimethyl sulfoxide (DMSO), and 90 mM tris acetate, pH 8.0, and were incubated at 10° C. Antibody samples contained 0.2 mg/mL (1.3 μM) protein.
The monitored wavelength and Δε value for each reaction, and the plot in FIG. 2 showing the corresponding absorption curves for each comparison are as follows:
The rate of o-dianisidine oxidation was examined at several o-dianisidine concentrations, ranging from 0.05 mM to 2.5 mM, using 10 mM H2 O2 in each case and other reaction conditions as described above. The initial rate of peroxidation v is shown in FIG. 3 as a function of o-dianisidine concentration for both reactions catalyzed by mesohemin alone (open squares) and reactions catalyzed by the antibody-mesohemin complex (filled squares).
Saturation kinetics for the o-dianisidine peroxidation reaction were determined at an o-dianisidine concentration of 0.6 mM, with the remaining reaction conditions as described above. Lineweaver-Burk plots are shown in FIG. 4 for both free mesohemin (open squares) and antibody-mesohemin complex (filled squares) as a function of H2 O2 concentrations. The rates shown are based on an estimated molar extinction coefficient (ε) of 7500 for oxidized o-dianisidine.

[2] = system: antibody (elicited against pyridoxal/p-nitrophenylalanine Schiff base analog hapten) which enhanced the bimolecular condensation reaction; experiment: Inhibition by hapten of the transamination between p-nitrophenylpyruvic acid and pyridoxamine; conditions: 100 μM of the hapten
Description: (§1) A hapten was formed by first reacting pyridoxal with p-nitrophenylalanine in the presence of aqueous NaBH4 at pH 8.5 to form a stable Schiff base analog. The latter was then treated with thiourea in 48% HBr followed by aqueous ammonium hydroxide to form the disulfide dimer, which was then reduced and subjected to disulfide exchange with a carrier protein to yield a hapten-protein conjugate in which the hapten was the Schiff base analog.
(§2) Antibodies were elicited against the conjugate in accordance with conventional procedures, and seven antibodies specifically binding to the hapten itself were selected. Inhibition tests were conducted in which p-nitrophenylalanine and pyridoxamine individually were contacted with the antibodies to determine whether or not binding between the antibodies and the hapten-protein conjugate was inhibited in an ELISA assay.
(§3) The same seven antibodies were then used in the transamination reaction between p-nitrophenylpyruvic acid and pyridoxamine to form p-nitrophenylalanine. Reactions were performed in two separate buffer solutions, using 1 mM each of p-nitrophenylpyruvic acid and pyridoxamine, 10 μM antibody (IgG) and 250 μM m-nitrobenzylalcohol as an internal standard in each case. The first buffer solution consisted of 10 mM phosphate and 150 mM NaCl at pH 7.5, and the second consisted of 100 mM imidazole and 100 mM NaCl at pH 7.0.

[3] = system: antibody (elicited against pyridoxal/p-nitrophenylalanine Schiff base analog hapten) which resulted in the highest rate of amino acid production in the …; experiment: as above; conditions: 100 μM of the hapten
Description: as §1, §2, §3

[4] = system: antibody 7G12-A10-G1-A12 plus 1 μM Fe(III)-mesoporphyrin; experiment: Oxidation of pyrogallol, absorption at 420 nm monitored over time (FIG. 1); conditions: 5 μM NMMP
Description: In one experiment, the antibody was used for oxidation of pyrogallol as determined spectrometrically by monitoring […]. The reaction was as follows: [drawing 6] The product has a maximum absorption at 420 nm.
(a) 1 μM Fe(III)-mesoporphyrin only;
(c) the antibody plus 1 μM Fe(III)-mesoporphyrin and 5 μM NMMP; and
(d) the antibody plus 1 μM Fe(III)-mesoporphyrin only.

[5] = system: monoclonal antibody 7G12-A10-G1-A12 elicited against N-methyl mesoporphyrin (NMMP); experiment: Inhibition of antibody-catalyzed chelation of metal ions by mesoporphyrin IX; conditions: inhibition of the antibody's catalytic ability (metal chelation by mesoporphyrin IX); read-out: inhibition constant (Ki)
Excerpt: N-Methyl mesoporphyrin (NMMP), a commercially available species obtained from Porphyrin Products, Logan, Utah, having the formula [drawing 3] was conjugated to a carrier protein by treatment of the NMMP with N-hydroxysuccinimide (NHS) and dicyclohexylcarbodiimide, followed by addition of the resulting NHS ester to a solution of the protein. Monoclonal antibodies were elicited in accordance with conventional procedures known to those skilled in the art, and purified by Protein A affinity chromatography.
The inhibition constant (Ki) for the iron(III)mesoporphyrin was less than 10 nM. The term "mesoporphyrin" is used here as an abbreviation for the more complete term "mesoporphyrin IX," and the abbreviations "MP" and "MPIX" are used interchangeably to refer to this species. Thus, "Fe(III)-mesoporphyrin," "iron(III)mesoporphyrin" and "Fe(III)MPIX" are equivalent, and "N-methyl nesoporphyrin," "NMMP" and "N-MeMPIX" and likewise equivalent.

[6] = peroxidation of the named reducing substrate by the antibody-mesohemin complex

Molecule: CCn1c(=NN=c2sc3cc(S(=O)(=O)O)ccc3n2CC)sc2cc(S(=O)(=O)O)ccc21 [2,2'-azinobis(3-ethylbenzothiazoline-6-sulfonic acid)]
Kcat /Km [1, 6]: 233 M⁻¹ s⁻¹

Molecule: OO [H2 O2, hydrogen peroxide]
Km ([1]; o-dianisidine peroxidation, 0.6 mM o-dianisidine, H2O2 concentration varied (Lineweaver-Burk, FIG. 4), pH 8.0, 10° C.): 24 mM
Kcat /Km ([1]; o-dianisidine peroxidation, 0.6 mM o-dianisidine, H2O2 concentration varied, pH 8.0, 10° C.): 274 m^-1 s^-1
kcat ([1]; o-dianisidine peroxidation, 0.6 mM o-dianisidine, H2O2 concentration varied, pH 8.0, 10° C., ε estimated 7500): 6.57 s⁻¹

Molecule: Cc1ncc(CO)c(CNC(Cc2ccc([N+](=O)[O-])cc2)C(=O)O)c1O (stereo not shown) [Schiff base analog]
inhibition of transamination [2]: noticeably inhibited
inhibition of transamination [3]: noticeably inhibited

Molecule: iron(III)mesoporphyrin
Ki [5]: < 10 nM

Second part, led by results:

Kcat /Km [1, 6]: 122 M⁻¹ s⁻¹
Molecule: Oc1cccc(O)c1O [pyrogallol]

effect of hapten on antibody catalysis of peroxidation ([1]; hapten in a stoichiometric amount relative to antibody binding sites, each of the four reactions): completely blocked antibody catalysis
Molecule: N-Methyl mesoporphyrin [NMMP]
effect of NMMP on the pyrogallol oxidation rate [4]: destroying the catalytic effect

From patent publication US5219732A, “Antibody-mediated cofactor-driven reactions” (priority 1990, dated 1993)
